Where only a bound is given, the exact number is not on record here.

Experimental findings from patent publication US20220242856A1, “CANNABINOID DERIVATIVES” (CANOPY GROWTH CORPORATION, priority 2019, published 2022) are described below.

The target in one test is T1, human CB2 receptor (Homo sapiens, UniProt P34972).
T1 construct: host or cells: CHO-K1
Kind of test: CB2 radioligand competitive binding assay ([3H]CP 55,940 displacement). Conditions: for Selectivity CB2: fold difference in selectivity between CB1 and CB2 binding, printed in the column of the receptor with higher affinity, 1.00 = about the same affinity. How it is done: Compounds of the present disclosure were tested for CB1 receptor binding affinity and for CB2 receptor binding affinity. As used herein, “binding affinity” is represented by the IC50 value, which was experimentally determined as described herein. The lower the IC50 value the higher the binding affinity. A compound of the present disclosure may be said to have “binding selectivity” if it has a higher binding affinity for one receptor compared to the other.
The membranes were prepared from CHO-K1 (Chinese hamster ovary) cells stably transfected with the human CB2 receptor (Cat.# ES-111-C; Perkin Elmer, Boston, Mass.). The cells were grown adherently and maintained in Ham's F12 medium containing 10% fetal bovine serum (FBS), penicillin, streptomycin and geneticin (G418) at 37° C. in a humid atmosphere of 5% CO2 following the manufacturer's instructions.
For membrane preparation the cells were washed with PBS and scraped off the plates in cold homogenization buffer (25 mM HEPES (pH 7.4), 2 mM EDTA) containing protease inhibitor cocktail (Sigma Cat.# P8340). The cell suspension was homogenized with a Pro-PK-01200D Polytron Homogenizer (Pro Scientific) and then centrifuged for 30 min at 120,000×g. The supernatant was discarded and the pellet was re-suspended in the homogenization buffer and stored at −80° C. until the time of use.
In this experiment, 3H radiolabeled CP 55,940, i.e. [3H]CP 55,940 (Perkin Elmer, Boston, Mass.), was used as a radioligand for the CB2 receptor to determine the binding affinity of compounds for the CB2 receptor (Scheme 7; above).
The competition binding experiments (single dose and dose-response) were performed by incubating 0.6 nM of [3H]CP55,940 (specific activity 101 Ci/mmol, Perkin Elmer) and different concentrations of compounds disclosed herein with membranes prepared as above from CHO-K1 cells expressing human CB2 receptor (1 μg of protein/well), 50 mM Tris-HCl (pH 7.4), 5 mM MgCl2, 1 mM CaCl2, and 2 mg/mL BSA.
For the single dose experiments, the compound stocks (usually 10 mM in DMSO) were diluted to working stocks in the binding buffer to give the final compound concentrations of 10 μM and 1 μM. For the dose-response experiments the test compounds were sequentially diluted to provide the desired concentration range for the IC50 determination. In each case the compounds were pre-incubated with the membrane for 20 min, before adding the radioligand.
After incubation with the radioligand for 60 min at 37° C., the incubation was terminated by rapid filtration of assay mixture through MultiScreen®HTS^+ 96-well filter plates (Millipore, Cat.# MSFCNXB), pre-soaked for 60 min with 50 mM Tris-HCl (pH 7.4) containing 0.33% polyethylenimine (PEI). The nonspecific binding (NSB) was determined in the presence of 10 μM unlabelled CP55,940. After drying the filter plate at 50° C. for at least 60 min, the filter-bound radioactivity was determined by scintillation spectrometry using the 1450 MicroBeta Plate Counter (Perkin Elmer, Boston, Mass.). From the dose-response experiments, the IC50 values were determined (see Table 1, CB2 IC50).

Test [1] concerns the target T2, human CB1 receptor (Homo sapiens, UniProt P21554).
T2 construct: host or cells: CHO-K1
Kind of test: CB1 radioligand competitive binding assay ([3H]CP 55,940 displacement). Conditions: for Selectivity CB1: fold difference in selectivity between CB1 and CB2 binding, printed in the column of the receptor with higher affinity, 1.00 = about the same affinity.

The target of test [2] is T2, human CB1 receptor. Kind of test: PathHunter β-arrestin functional assay, CB1 receptor, agonist mode. The class given is cell-based. Conditions: PathHunter CHO-K1 CNR1 β-Arrestin cells; normalized to CP55,940. From the text: (§1) In the PathHunter® β-Arrestin system from DiscoveRx (Eurofins, Fremont, Calif.), a small peptide, the ProLink™ (PK), is fused to the intracellular sequence of a GPCR target, and a complementing peptide, the enzyme acceptor (EA) fragment, is fused to β-arrestin. After binding to its specific ligand, the GPCR target recruits β-arrestin, forcing the complementation of the two β-galactosidase enzyme fragments (EA and PK) to produce a functional β-galactosidase enzyme. The enzyme activity, and thus the amount of ligand bound to the GPCR, is detected with a single addition of a reagent cocktail to lyse the cells and produce a chemiluminescent signal before being analyzed using a traditional plate reader.
(§2) PathHunter® CHO-K1 CNR1 β-Arrestin cells (DiscoverRx, cat. Number 93-0959C2) stably expressing CB1 receptor (CB1R) were grown in Ham's F12 medium containing 10% fetal bovine serum (FBS), 1% penicillin/streptomycin, 300 μg/mL Hygromycin B and 800 μg/mL geneticin (G418) and maintained in 37° C. incubators at 5% CO2. […]
(§3) The incubation was terminated by adding the detection reagent (19 parts of 1% CHAPS, 5 parts Emerald-II and 1 part Galacton-Star), equivalent to 50% of the assay volume to each wells. Plates were incubated for 1 hour in the dark at room temperature, followed by chemiluminescence detection using a microplate reader.
(§4) Data were analysed by generating nonlinear regression curves. […]

Test [3] concerns the target T2, human CB1 receptor. Kind of test: PathHunter β-arrestin functional assay, CB1 receptor, antagonist mode. The class given is cell-based.
Description: as §1, §2, §3, §4

T1 sequence (P34972 whole entry): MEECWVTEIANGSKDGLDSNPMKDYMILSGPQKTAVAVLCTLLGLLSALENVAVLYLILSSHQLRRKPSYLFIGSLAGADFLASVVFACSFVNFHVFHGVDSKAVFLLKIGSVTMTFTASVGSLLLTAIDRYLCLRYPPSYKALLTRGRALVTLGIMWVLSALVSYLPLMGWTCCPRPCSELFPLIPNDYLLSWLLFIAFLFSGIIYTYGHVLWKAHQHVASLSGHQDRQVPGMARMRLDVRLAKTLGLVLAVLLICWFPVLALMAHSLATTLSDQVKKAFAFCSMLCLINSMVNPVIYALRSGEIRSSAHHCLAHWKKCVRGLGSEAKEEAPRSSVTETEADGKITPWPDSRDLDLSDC
T2 sequence (P21554 whole entry): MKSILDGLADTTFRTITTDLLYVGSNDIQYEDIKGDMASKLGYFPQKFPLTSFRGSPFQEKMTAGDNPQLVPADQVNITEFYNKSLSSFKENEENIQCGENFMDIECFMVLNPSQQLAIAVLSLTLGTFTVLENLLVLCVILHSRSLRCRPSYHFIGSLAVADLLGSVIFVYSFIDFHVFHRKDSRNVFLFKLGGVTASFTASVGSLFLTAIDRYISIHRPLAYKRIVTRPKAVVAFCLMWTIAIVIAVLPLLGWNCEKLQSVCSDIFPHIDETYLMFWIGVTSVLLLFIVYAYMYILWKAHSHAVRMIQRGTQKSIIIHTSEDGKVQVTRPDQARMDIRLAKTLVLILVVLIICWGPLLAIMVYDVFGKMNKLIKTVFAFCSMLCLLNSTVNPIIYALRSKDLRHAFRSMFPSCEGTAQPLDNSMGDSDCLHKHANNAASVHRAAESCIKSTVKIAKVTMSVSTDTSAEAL

Consider `CCCCCc1cc2c(c(O)c1-c1cccnc1)[C@@H]1C=C(C)CC[C@H]1C(C)(C)O2` [Compound 12b, 6,6,9-trimethyl-3-pentyl-2-(pyridin-3-yl)-6a,7,8,10a-tetrahydro-6H-benzo[c]chromen-1-ol], for which the IC50 on human CB2 receptor and on human CB1 receptor [1] was 500 to 990 nM throughout. The “Selectivity CB2” value at human CB2 receptor came to 1.57 fold. The “activity towards the human CB1 receptor, agonist mode” value at human CB1 receptor [2] is recorded as “minimal to no activity”.

As to `CCCCCc1cc2c(c(O)c1-c1cncnc1)[C@@H]1C=C(C)CC[C@H]1C(C)(C)O2` [Compound 13b, 6,6,9-trimethyl-3-pentyl-2-(pyrimidin-5-yl)-6a,7,8,10a-tetrahydro-6H-benzo [c] chromen-1-ol], at human CB2 receptor, the IC50 lay within 500 to 990 nM and the “Selectivity CB2” value was 5.00 fold. In addition, the IC50 on human CB1 receptor [1] was > 1000 nM.

As for `CCCCCc1cc2c(c(O)c1-c1cc3ccccc3s1)[C@@H]1C=C(C)CC[C@H]1C(C)(C)O2` [Compound 36b, 2-(benzothiophen-2-yl)-6,6,9-trimethyl-3-pentyl-6a,7,8,10a-tetrahydrobenzo[c]chromen-1-ol], the IC50 on human CB2 receptor is 100 to 490 nM; at human CB1 receptor [1], > 1000 nM; on human CB1 receptor [3], ~3000 nM. On human CB2 receptor, the “Selectivity CB2” value was determined as 5.67 fold. In addition, at human CB1 receptor [2], the “activity towards the human CB1 receptor, agonist mode” value is “minimal to no activity”.

Consider `CCCCCc1cc2c(c(O)c1-c1cn[nH]c1)[C@@H]1C=C(C)CC[C@H]1C(C)(C)O2` [Compound 35b, 6,6,9-trimethyl-3-pentyl-2-(1H-pyrazol-4-yl)-6a,7,8,10a-tetrahydro-6H-benzo[c]chromen-1-ol], for which, at human CB2 receptor, the IC50 lay within 500 to 990 nM and the “Selectivity CB2” value is 2.64 fold. Besides, at human CB1 receptor [1], the IC50 was > 1000 nM.

For `CCCCCc1cc2c(c(O)c1-c1ccsc1)[C@@H]1C=C(C)CC[C@H]1C(C)(C)O2` [Compound 17b, 6,6,9-trimethyl-3-pentyl-2-(thiophen-3-yl)-6a,7,8,10a-tetrahydro-6H-benzo[c]chromen-1-ol], on human CB2 receptor, the IC50 was < 100 nM and the “Selectivity CB2” value is reported as 3.43 fold. This compound also gave an IC50 on human CB1 receptor [1] of 100 to 490 nM.

For `CCCCCc1cc2c(c(O)c1-c1ccnn1C)[C@@H]1C=C(C)CC[C@H]1C(C)(C)O2` [Compound 33b, 6,6,9-trimethyl-2-(1-methyl-1H-pyrazol-5-yl)-3-pentyl-6a,7,8,10a-tetrahydro-6H-benzo[c]chromen-1-ol], at human CB2 receptor, the IC50 was in the range of 100 to 490 nM and the “Selectivity CB2” value is on record as 1.61 fold. The IC50 at human CB1 receptor [1] was 100 to 490 nM.

`CCCCCc1cc2c(c(O)c1-c1ccco1)[C@@H]1C=C(C)CC[C@H]1C(C)(C)O2` [Compound 15b, 2-(furan-2-yl)-6,6,9-trimethyl-3-pentyl-6a,7,8,10a-tetrahydro-6H-benzo[c]chromen-1-ol]: on human CB2 receptor, the IC50 was < 100 nM and the “Selectivity CB2” value was 1.00 fold. Moreover, at human CB1 receptor [1], the IC50 is < 100 nM and the “Selectivity CB1” value came to 1.00 fold.

`CCCCCc1cc2c(c(O)c1-c1cncs1)[C@@H]1C=C(C)CC[C@H]1C(C)(C)O2` [Compound 18b]: at human CB2 receptor, the IC50 was > 1000 nM and the “Selectivity CB2” value amounted to 1.00 fold. Besides, at human CB1 receptor [1], the IC50 was > 1000 nM and the “Selectivity CB1” value was 1.00 fold.

With `CCCCCc1cc2c(c(O)c1-c1ccncc1)[C@@H]1C=C(C)CC[C@H]1C(C)(C)O2` [Compound 14b, 6,6,9-trimethyl-3-pentyl-2-(pyridin-4-yl)-6a,7,8,10a-tetrahydro-6H-benzo[c]chromen-1-ol], at human CB2 receptor, the IC50 fell in the range of 100 to 490 nM and the “Selectivity CB2” value worked out at 1.77 fold. The compound also had an IC50 at human CB1 receptor [1] of 100 to 490 nM.

For `CCCCCc1cc2c(c(O)c1-c1cc3ccccc3o1)[C@@H]1C=C(C)CC[C@H]1C(C)(C)O2` [Compound 34b, 2-(benzofuran-2-yl)-6,6,9-trimethyl-3-pentyl-6a,7,8,10a-tetrahydro-6H-benzo[c]chromen-1-ol], on human CB2 receptor, the IC50 lay within 100 to 490 nM and the “Selectivity CB2” value is given as 4.41 fold. The same compound returned an IC50 at human CB1 receptor [1] of 500 to 990 nM.
